Activity calls are given as the source filed them. The calls are words filed in the database; no cut-off is given here.

The target of assay [1] is Toll-like receptor 4 (Homo sapiens) (UniProt O00206). In words: Agonist activity at human TLR4 expressed in HEK-blue cells coexpressing MD2 at 500 ng/ml by SEAP reporter gene assay relative to MPLA. In kind it is cell-based.
Assay [2] has the same target. In words: Agonist activity at human TLR4 expressed in HEK-blue cells coexpressing MD2 at 1.07 10^-5M by SEAP reporter gene assay relative to MPLA. It counts as cell-based.
The target is the same in assay [3]. In words: Agonist activity at human TLR4 expressed in HEK-blue cells coexpressing MD2 at 1.07 10^-5M by SEAP reporter gene assay. It counts as cell-based.
Assay [4] deals with PBMC. In words: Immunostimulatory activity in human PBMC assessed as increase in IL-6 release at 10 uM after 24 hrs by ELISA. In kind it is functional.
The target in assay [5] is Toll-like receptor 4 (Homo sapiens) (UniProt O00206). In words: Agonist activity at human TLR4 expressed in HEK-blue cells coexpressing MD2 at 0.99 10^-5M by SEAP reporter gene assay. In kind it is cell-based.
For assay [6] the target is unchanged. In words: Agonist activity at human TLR4 expressed in HEK-blue cells coexpressing MD2 at 1.06 10^-5M by SEAP reporter gene assay relative to MPLA. In kind it is cell-based.
Assay [7] has the same target. In words: Agonist activity at human TLR4 expressed in HEK-blue cells coexpressing MD2 at 1.11 10^-5M by SEAP reporter gene assay. In kind it is cell-based.
Assay [8] has the same target. In words: Agonist activity at human TLR4 expressed in HEK-blue cells coexpressing MD2 at 1.11 10^-5M by SEAP reporter gene assay relative to MPLA. In kind it is cell-based.
For assay [9] the target is unchanged. In words: Agonist activity at human TLR4 expressed in HEK-blue cells coexpressing MD2 at 1.15 10^-5M by SEAP reporter gene assay. It counts as cell-based.

Toll-like receptor 4 (Homo sapiens), sequence (O00206 whole entry): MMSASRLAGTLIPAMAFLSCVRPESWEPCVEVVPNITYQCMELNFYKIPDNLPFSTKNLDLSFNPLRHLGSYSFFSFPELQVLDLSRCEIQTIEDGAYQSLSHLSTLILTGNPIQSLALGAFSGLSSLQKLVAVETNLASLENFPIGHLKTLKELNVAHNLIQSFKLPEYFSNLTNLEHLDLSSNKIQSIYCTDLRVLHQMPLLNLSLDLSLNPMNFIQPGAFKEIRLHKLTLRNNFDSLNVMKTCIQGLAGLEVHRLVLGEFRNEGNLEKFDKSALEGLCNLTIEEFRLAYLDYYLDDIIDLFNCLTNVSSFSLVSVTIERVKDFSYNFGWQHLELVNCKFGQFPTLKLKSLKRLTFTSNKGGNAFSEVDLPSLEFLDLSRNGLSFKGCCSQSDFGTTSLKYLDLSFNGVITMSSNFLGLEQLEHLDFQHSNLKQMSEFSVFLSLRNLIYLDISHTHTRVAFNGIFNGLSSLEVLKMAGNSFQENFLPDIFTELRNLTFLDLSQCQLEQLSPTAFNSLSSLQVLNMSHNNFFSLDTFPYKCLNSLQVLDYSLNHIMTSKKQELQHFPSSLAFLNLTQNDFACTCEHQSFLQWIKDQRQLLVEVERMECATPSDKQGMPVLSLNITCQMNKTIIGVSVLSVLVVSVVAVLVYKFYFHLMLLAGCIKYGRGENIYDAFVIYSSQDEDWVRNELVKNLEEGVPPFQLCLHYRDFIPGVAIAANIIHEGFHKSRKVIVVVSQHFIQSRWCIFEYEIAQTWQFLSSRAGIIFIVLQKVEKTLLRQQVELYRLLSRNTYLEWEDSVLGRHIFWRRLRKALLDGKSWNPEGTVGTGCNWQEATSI

The compound `CC(=O)Nc1ccc(-c2ccc(N3C(=O)C4C5c6ccccc6C(c6ccccc65)C4C3=O)cc2)cc1` (stereo not drawn) came in with an Activity in assay [1] of 30%.

In the case of `COc1ccc(CNC(=O)CCN2C(=O)C3C4c5ccccc5C(c5ccccc54)C3C2=O)cc1` (stereo not drawn), the figures for the Activity in [2] and in [4] were 50% and 219.76 pg/mL, respectively. Also, the result in [3] was Active.

For `O=C(CCN1C(=O)C2C3c4ccccc4C(c4ccccc43)C2C1=O)NC1CCCCCC1` (stereo not drawn), in assay [4], the Activity came to 7.3 pg/mL.

Take `CC(C)CNC(=O)CCN1C(=O)C2C3c4ccccc4C(c4ccccc43)C2C1=O` (stereo not drawn): the result in assay [4] was inactive.

Take `O=C(CCN1C(=O)C2C3c4ccccc4C(c4ccccc43)C2C1=O)NC1CCCCC1` (stereo not drawn): in assay [4], the outcome was inactive.

Consider `O=C(CCN1C(=O)C2C3c4ccccc4C(c4ccccc43)C2C1=O)NCc1ccc(Cl)c(Cl)c1` (stereo not drawn), for which the outcome in assay [5] and in assay [4] was inactive.

Consider `O=C(CCN1C(=O)C2C3c4ccccc4C(c4ccccc43)C2C1=O)NC1CCCCCCC1` (stereo not drawn), for which the Activity in [4] amounted to 212.56 pg/mL.

On to `O=C(CCN1C(=O)C2C3c4ccccc4C(c4ccccc43)C2C1=O)NCc1ccc(Cl)cc1` (stereo not drawn), for which the Activity in assay [6] worked out at 50%; in [4], 0.725 pg/mL.

On to `Cc1ccc(CNC(=O)CCN2C(=O)C3C4c5ccccc5C(c5ccccc54)C3C2=O)cc1` (stereo not drawn), for which, in assay [7], the outcome was Active. The Activity in [4] is 5.76 pg/mL; in assay [8] it was 50%.

`CC(C)(C)NC(=O)CCN1C(=O)C2C3c4ccccc4C(c4ccccc43)C2C1=O` (stereo not drawn): in assay [4], the outcome was inactive.

Consider `O=C(CCN1C(=O)C2C3c4ccccc4C(c4ccccc43)C2C1=O)NCc1ccccc1` (stereo not drawn), for which the result in [9] and in assay [4] was inactive.

For the origin of these results see ChEMBL document CHEMBL4145516, “Rational design of novel TLR4 ligands by in silico screening and their functional and structural characterization in vitro” (2018).
